Results from patent US11560391B2, “Sulfonylurea compounds as inhibitors of interleukin-1 activity” (Genentech, Inc., priority 2018, dated 2023).
Where two headings read alike, the source gives them in different places.

Assays:
NLRP3 inflammasome = molecular target: T1, NLRP3 inflammasome (Homo sapiens, UniProt Q96P20); experiment: NLRP3 inflammasome activation assay in LPS-primed, nigericin-stimulated PBMCs, IL-1β release; assay type: cell-based; details: PBMC, LPS priming, 10 μM nigericin
T1 construct: freshly isolated from human peripheral blood from healthy donors; StemCells Technologies; host or cells: primary human PBMCs
T1 sequence (Q96P20 whole entry): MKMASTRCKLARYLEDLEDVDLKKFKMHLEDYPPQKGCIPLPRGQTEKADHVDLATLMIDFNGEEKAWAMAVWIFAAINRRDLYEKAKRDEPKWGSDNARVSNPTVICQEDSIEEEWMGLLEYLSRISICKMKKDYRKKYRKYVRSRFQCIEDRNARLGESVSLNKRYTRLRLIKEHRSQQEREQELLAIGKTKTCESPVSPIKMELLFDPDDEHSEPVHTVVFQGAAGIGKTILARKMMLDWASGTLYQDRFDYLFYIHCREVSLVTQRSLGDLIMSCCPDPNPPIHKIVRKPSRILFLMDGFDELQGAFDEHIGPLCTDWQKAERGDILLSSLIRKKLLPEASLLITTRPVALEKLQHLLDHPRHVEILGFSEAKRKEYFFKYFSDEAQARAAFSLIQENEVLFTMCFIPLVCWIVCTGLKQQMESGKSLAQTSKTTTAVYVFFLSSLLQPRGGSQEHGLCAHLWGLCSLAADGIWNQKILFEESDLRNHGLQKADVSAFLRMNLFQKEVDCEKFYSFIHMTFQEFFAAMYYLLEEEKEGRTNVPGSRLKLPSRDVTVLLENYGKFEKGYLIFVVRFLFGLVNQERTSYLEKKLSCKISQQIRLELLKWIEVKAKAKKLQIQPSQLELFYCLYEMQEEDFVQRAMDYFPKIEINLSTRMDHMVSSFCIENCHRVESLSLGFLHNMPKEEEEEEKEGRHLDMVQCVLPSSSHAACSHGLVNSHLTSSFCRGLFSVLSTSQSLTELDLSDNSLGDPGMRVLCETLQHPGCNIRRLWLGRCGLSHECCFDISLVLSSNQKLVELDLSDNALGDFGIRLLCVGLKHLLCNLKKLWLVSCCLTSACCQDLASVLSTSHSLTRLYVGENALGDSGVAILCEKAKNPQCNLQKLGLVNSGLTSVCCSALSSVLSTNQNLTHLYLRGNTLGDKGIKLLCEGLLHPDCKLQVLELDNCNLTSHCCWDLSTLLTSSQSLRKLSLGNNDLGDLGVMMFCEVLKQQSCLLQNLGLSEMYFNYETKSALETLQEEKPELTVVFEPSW
Procedure, shortened: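 Fresh or cryopreserved human PBMCs primed with 100 ng/mL LPS for 3 h, pre-incubated 30 min with compound (0.00017-10 uM, or 2-fold 20-point series from 40 μM), then stimulated with 10 μM nigericin for 1.5 h at 37 °C. Supernatant IL-1β measured by ELISA or by HTRF (665/620 ratio).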

THP-1 ASC-GFP cells = experiment: THP-1 ASC-GFP speck assay (NLRP3 inflammasome activation, nigericin); assay type: cell-based; details: THP1-ASC-GFP; PMA-differentiated, LPS primed, 10 μM nigericin
Method: THP-1 ASC-GFP cell line was purchased from Invivogen, San Diego, for infammasome activation assay. THP-1 ASC-GFP cells stably express a 37.6 kDa ASC::GFP fusion protein that enables monitoring of spec formation by microscopy after activation of NLRP3 dependent inflammasome pathway. Cells were maintained at a density of 600,000 cells/mL in growth media consisting of RPMI 1640, 2 mM L-glutamine, 25 mM HEPES and 10% heat inactivated fetal bovine serum at 37° C. and 5% CO2. Cells were passaged every 3-4 days and used for assays for up to 20 passages.
THP-1 ASC-GFP cells were collected by centrifuging cells at 800 RPM for 5 minutes. Cell culture supernatant was removed and cells were re-suspended in fresh media at density of 1×10^6 cells/mL in assay media consisting of RPMI 1640, 2 mM L-glutamine, 25 mM HEPES and 10% heat inactivated fetal bovine serum. Phorbol 12-myristate 13-acetate (PMA) (Invivogen,tlrl-pma) was added to the cell suspension at a final concentration of 500 ng/ml and mixed thoroughly. 40,000 cells were added per well of a 384 well plate and differentiated into macrophages overnight at 37° C. and 5% CO2. Cells were primed with 1 μg/mL of lipopolysaccharide (Invivogen Ultrapure lipopolysaccharide from E. coli, tlrl-3pelps) in assay media for 3 hours at 37° C. and 5% CO2. After priming, media was removed and THP-1 ASC-GFP cells were preincubated with serially diluted test compounds with starting concentration of 40 μM followed by 2-fold dilution for a 20-point curve or vehicle (DMSO) for 30 min in assay media at 37° C. and 5% CO2. Cells were then stimulated with 10 μM nigericin (Invivogen, tlrl-nig-5) for 90 min at 37° C. and 5% CO2 to activate NLRP3 dependent inflammasome pathway and spec formation. After stimulation, cells were fixed with 4.8% paraformaldehyde (Electron Microscopy Sciences #15710-S) and incubated at room temperature for 15 min. Cells were then washed 3-times with 100 μL of phosphate buffered saline and permeabilized in the presence of premeablization/block buffer for 20 min at room temperature. Cells were then washed 3-times with 100 μL phosphate buffered saline and incubated for 1 hr at room temperature in the presence of hoechst. After staining with Hoechst, cells were washed 3-times with 100 μL phosphate buffered saline and imaged for ASC spec formation.
THP-1 ASC-GFP cells were imaged in 488 and Hoechst channels. Hoechst channel was used for cell count and 488 channel was used to identify number of GFP ASC specks in imaged fields. Percentage of cells with a spec was calculated by dividing the number of GFP positive spots by total number of cells.

| IC50 (NLRP3 inflammasome; read-out: PMBC IL-1β IC50) | IC50 (THP-1 ASC-GFP cells) | Compound | IC50 (NLRP3 inflammasome; PMBC IL-1β IC50 (μM)) |
| --- | --- | --- | --- |
| > 10 µM | > 9800 nM | O=C(Nc1nc(-c2ccccc2)cc(C(F)(F)F)n1)NS(=O)(=O)c1cnn2c1OCCC2 [Example 17, N-((4-phenyl-6-(trifluoromethyl)pyrimidin-2-yl)carbamoyl)-6,7-dihydro-5H-pyrazolo[5,1-b][1,3]oxazine-3-sulfonamide] |  |
| > 10 µM | > 20000 nM | CC(C)c1cc(Cl)nc(NC(=O)NS(=O)(=O)c2cnn3c2OCCC3)n1 [Example 16, N-((4-chloro-6-isopropylpyrimidin-2-yl)carbamoyl)-6,7-dihydro-5H-pyrazolo[5,1-b][1,3]oxazine-3-sulfonamide] |  |
| > 10 µM | 12000 nM | Cc1cc(C2CC2)nc(NC(=O)NS(=O)(=O)c2cnn3c2OCCC3)n1 [Example 21, N-((4-cyclopropyl-6-methylpyrimidin-2-yl)carbamoyl)-6,7-dihydro-5H-pyrazolo[5,1-b][1,3]oxazine-3-sulfonamide] |  |
| > 10 µM | > 20000 nM | CC(C)(C)c1cc(C(C)(C)C)nc(NC(=O)NS(=O)(=O)c2cnn3c2OCCC3)n1 [Example 22, N-((4,6-di-tert-butylpyrimidin-2-yl)carbamoyl)-6,7-dihydro-5H-pyrazolo[5,1-b][1,3]oxazine-3-sulfonamide] |  |
| > 10 µM | > 20000 nM | O=C(Nc1nc(-c2ccccc2)cc2c1CCC2)NS(=O)(=O)c1cnn2c1OCCC2 [Example 23, N-((3-phenyl-6,7-dihydro-5H-cyclopenta[c]pyridin-1-yl)carbamoyl)-6,7-dihydro-5H-pyrazolo[5,1-b][1,3]oxazine-3-sulfonamide] |  |
|  | 200 nM | CC(C)c1nn(CC(F)(F)F)c(C(C)C)c1NC(=O)NS(=O)(=O)c1cnn2c1OCCC2 [Example 58, N-((3,5-diisopropyl-1-(2,2,2-trifluoroethyl)-1H-pyrazol-4-yl)carbamoyl)-6,7-dihydro-5H-pyrazolo[5,1-b][1,3]oxazine-3-sulfonamide, ammonia] |  |
| > 10 µM | > 20000 nM | Cc1nc(NC(=O)NS(=O)(=O)c2cnn3c2OCCC3)nc2c1CCCC2 [Example 24, N-((4-methyl-5,6,7,8-tetrahydroquinazolin-2-yl)carbamoyl)-6,7-dihydro-5H-pyrazolo[5,1-b][1,3]oxazine-3-sulfonamide] |  |
|  | 240 nM | CN[C@@H]1COc2c(S(=O)(=O)NC(=O)Nc3c(C(C)C)nn(C(F)(F)F)c3C(C)C)cnn2C1 [Example 64a, (S)—N-((3,5-diisopropyl-1-(trifluoromethyl)-1H-pyrazol-4-yl)carbamoyl)-6-(methylamino)-6,7-dihydro-5H-pyrazolo[5,1-b][1,3]oxazine-3-sulfonamide, ammonia] |  |
|  | 900 nM | CC(C)n1nc2c(c1NC(=O)NS(=O)(=O)c1cnn3c1OCC(C)(C)C3)CCC2 [Example 61, N-((2-isopropyl-2,4,5,6-tetrahydrocyclopenta[c]pyrazol-3-yl)carbamoyl)-6,6-dimethyl-6,7-dihydro-5H-pyrazolo[5,1-b][1,3]oxazine-3-sulfonamide] |  |
|  | 640 nM | CO[C@@H]1COc2c(S(=O)(=O)NC(=O)Nc3c(C(C)C)nn(CC(F)F)c3C(C)C)cnn2C1 [Example 62a, (S)—N-((1-(2,2-difluoroethyl)-3,5-diisopropyl-1H-pyrazol-4-yl)carbamoyl)-6-methoxy-6,7-dihydro-5H-pyrazolo[5,1-b][1,3]oxazine-3-sulfonamide, ammonia] |  |
|  | 1900 nM | CC(C)n1nc2c(c1NC(=O)NS(=O)(=O)c1cnn3c1OC[C@@H](N(C)C)C3)CCC2 [Example 77a, (S)-6-(dimethylamino)-N-((2-isopropyl-2,4,5,6-tetrahydrocyclopenta[c]pyrazol-3-yl)carbamoyl)-6,7-dihydro-5H-pyrazolo[5,1-b][1,3]oxazine-3-sulfonamide] |  |
|  | 3600 nM | CCn1nc(C(C)C)c(NC(=O)NS(=O)(=O)c2cnn3c2OC[C@@H](NC)C3)c1C(C)C [Example 66a, (S)—N-((1-ethyl-3,5-diisopropyl-1H-pyrazol-4-yl)carbamoyl)-6-(methylamino)-6,7-dihydro-5H-pyrazolo[5,1-b][1,3]oxazine-3-sulfonamide, ammonia] |  |
|  | 520 nM | COc1cc(-c2cc(C(F)(F)F)nc(C(C)C)c2NC(=O)NS(=O)(=O)c2cnn3c2OCCC3)ccn1 [Example 69, Sodium N-((2-isopropyl-2′-methoxy-6-(trifluoromethyl)-[4,4′-bipyridin]-3-yl)carbamoyl)-6,7-dihydro-5H-pyrazolo[5,1-b][1,3]oxazine-3-sulfonamide] |  |
|  | 1500 nM | CC(C)c1nn(C)c(C(C)C)c1NC(=O)NS(=O)(=O)c1cnn2c1OCC(C)(C)C2 [Example 68, N-((3,5-diisopropyl-1-methyl-1H-pyrazol-4-yl)carbamoyl)-6,6-dimethyl-6,7-dihydro-5H-pyrazolo[5,1-b][1,3]oxazine-3-sulfonamide, ammonia] |  |
|  | 4100 nM | CN[C@@H]1COc2c(S(=O)(=O)NC(=O)Nc3c(C(C)C)nn(CC(F)F)c3C(C)C)cnn2C1 [Example 70a, (S)—N-((1-(2,2-difluoroethyl)-3,5-diisopropyl-1H-pyrazol-4-yl)carbamoyl)-6-(methylamino)-6,7-dihydro-5H-pyrazolo[5,1-b][1,3]oxazine-3-sulfonamide, ammonia] |  |
|  | 170 nM | CC(C)c1nn(C(F)(F)F)c(C(C)C)c1NC(=O)NS(=O)(=O)c1cnn2c1OCCC2 [Example 67, N-((3,5-diisopropyl-1-(trifluoromethyl)-1H-pyrazol-4-yl)carbamoyl)-6,7-dihydro-5H-pyrazolo[5,1-b][1,3]oxazine-3-sulfonamide, ammonia] |  |
|  | 8700 nM | CN[C@@H]1COc2c(S(=O)(=O)NC(=O)Nc3c(C(C)C)nn(C)c3C(C)C)cnn2C1 [Example 73a, (S)—N-((3,5-diisopropyl-1-methyl-1H-pyrazol-4-yl)carbamoyl)-6-(methylamino)-6,7-dihydro-5H-pyrazolo[5,1-b][1,3]oxazine-3-sulfonamide, ammonia] |  |
|  | 71 nM | CO[C@@H]1COc2c(S(=O)(=O)NC(=O)Nc3c(C(C)C)nn(C(F)(F)F)c3C(C)C)cnn2C1 [Example 78a, (S)—N-((3,5-diisopropyl-1-(trifluoromethyl)-1H-pyrazol-4-yl)carbamoyl)-6-methoxy-6,7-dihydro-5H-pyrazolo[5,1-b][1,3]oxazine-3-sulfonamide] |  |

| Compound | IC50 (NLRP3 inflammasome; read-out: PMBC IL-1β IC50) | IC50 (THP-1 ASC-GFP cells) | IC50 (NLRP3 inflammasome; PMBC IL-1β IC50 (μM)) |
| --- | --- | --- | --- |
| O=C(Nc1nc(Cl)cc(Cl)n1)NS(=O)(=O)c1cnn2c1OCCC2 [Example 4, N-((4,6-dichloropyrimidin-2-yl)carbamoyl)-6,7-dihydro-5H-pyrazolo[5,1-b][1,3]oxazine-3-sulfonamide] | > 10 µM | > 20000 nM |  |
| COc1cc(OC)nc(NC(=O)NS(=O)(=O)c2cnn3c2OCCC3)n1 [Example 18, N-((4,6-dimethoxypyrimidin-2-yl)carbamoyl)-6,7-dihydro-5H-pyrazolo[5,1-b][1,3]oxazine-3-sulfonamide] |  | > 20000 nM | > 10 µM |
| COc1cc(C)nc(NC(=O)NS(=O)(=O)c2cnn3c2OCCC3)n1 [Example 19, N-((4-methoxy-6-methylpyrimidin-2-yl)carbamoyl)-6,7-dihydro-5H-pyrazolo[5,1-b][1,3]oxazine-3-sulfonamide] |  | > 20000 nM | > 10 µM |
| Cc1cc(C)nc(NC(=O)NS(=O)(=O)c2cnn3c2OCCC3)n1 [Example 25, N-((4,6-dimethylpyrimidin-2-yl)carbamoyl)-6,7-dihydro-5H-pyrazolo[5,1-b][1,3]oxazine-3-sulfonamide] | > 10 µM | > 20000 nM |  |
